Reference: patent US20250074911A1, “MACROCYCLIC BTK INHIBITORS” (Crossfire Oncology Holding B.V., priority 2021, published 2025)

Legend:
[1] = target: wt-BTK (Homo sapiens (Human), UniProt Q06187); test: Binding kinetics measurements (Surface Plasmon Resonance) on wt-BTK; details: for Kd: binding affinity by Surface Plasmon Resonance (SPR); for Tau (h) wt-BTK (Act): target residence time, SPR
Outline: (§1)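 Using streptavidin-captured kinase, binding was followed by SPR in 1% DMSO buffer at 22° C and 30 μl/min. Five consecutive compound injections spanned 3.16-316 nM, preceded by a blank run; data were double referenced before kinetic fitting.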

[2] = tested on: wt-TMD8 diffuse large B-cell lymphoma cells; test: Cell proliferation assay wt-TMD8 (ATPlite, 120 hours); type: cell-based; details: B-cell; wt-TMD8 cells, 120 hours, ATPlite; read-out: IC50 wt-TMD8
Outline: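 Readout is percentage growth from ATPlite 1Step luminescence after 5 days (120 h) compound treatment of wt-TMD8 lymphoma cells (1600/well, RPMI-1640 + 10% FBS). Time-zero signal separates growth inhibition from cell kill; 0.3% DMSO wells without compound define maximal growth.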

[3] = tested on: wt-REC-1 mantle cell lymphoma cells; test: Cell proliferation assay wt-REC-1 (ATPlite, 72 hours); type: cell-based; details: 72 h; read-out: IC50 wt-REC-1
Outline: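 Luminescent viability read over 72 h, start-of-incubation signal recorded separately to separate growth from cell death. Percentage growth referenced to compound-free 0.3% DMSO wells; IC50 from 4-parameter logistic fit.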

[4] = target: full-length BTK C481S enzyme (Homo sapiens (Human), UniProt Q06187, C481S); test: Biochemical kinase assay BTK C481S (IMAP)
Sequence of full-length BTK C481S enzyme (Q06187 whole entry C481S): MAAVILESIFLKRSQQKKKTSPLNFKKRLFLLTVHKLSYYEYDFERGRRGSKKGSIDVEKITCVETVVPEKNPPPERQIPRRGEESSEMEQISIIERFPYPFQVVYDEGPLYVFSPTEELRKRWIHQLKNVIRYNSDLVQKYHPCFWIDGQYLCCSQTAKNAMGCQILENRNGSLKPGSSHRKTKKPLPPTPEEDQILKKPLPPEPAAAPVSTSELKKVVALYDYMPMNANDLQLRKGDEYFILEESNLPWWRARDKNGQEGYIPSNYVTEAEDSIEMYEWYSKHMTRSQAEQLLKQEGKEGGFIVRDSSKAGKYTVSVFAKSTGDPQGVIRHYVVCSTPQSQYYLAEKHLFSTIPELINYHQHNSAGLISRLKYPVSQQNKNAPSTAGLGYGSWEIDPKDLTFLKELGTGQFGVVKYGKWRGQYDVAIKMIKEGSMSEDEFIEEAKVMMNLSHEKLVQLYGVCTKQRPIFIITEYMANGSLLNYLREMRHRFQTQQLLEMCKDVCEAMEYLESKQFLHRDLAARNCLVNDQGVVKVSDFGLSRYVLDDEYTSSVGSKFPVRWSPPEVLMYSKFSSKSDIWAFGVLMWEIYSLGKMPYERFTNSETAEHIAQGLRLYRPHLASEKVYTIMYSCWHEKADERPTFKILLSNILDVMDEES
Outline: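 IC50 values come from IMAP fluorescence polarization after quenching with progressive binding solution. The reaction ran 2 h at room temperature in the dark with 1.2 nM full-length C481S enzyme, 7 μM ATP and 50 nM fluorescein-labelled MBP-derived peptide, following a 1 h dark pre-incubation of compound with enzyme.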

[5] = tested on: REC-1 T474I cell lines; test: Cell proliferation assay REC-1 BTK T474I knock-in cells (ATPlite, 72 hours); type: cell-based; details: Homo sapiens, Rec1; 72 hours; read-out: IC50 REC-1 T474I
Outline: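 REC-1 cells carrying CRISPR knock-in mutant BTK, single-cell cloned and sequence-confirmed, were exposed to compound for 72 h and read by ATPlite luminescence. Percentage growth was calculated against the signal at the start of incubation and against untreated 0.3% DMSO wells as maximum growth.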

[6] = target: BTK C481S (Homo sapiens (Human), UniProt Q06187, C481S); test: Binding kinetics measurements (Surface Plasmon Resonance) on BTK C481S; details: for Kd: binding affinity by Surface Plasmon Resonance (SPR); for Tau (h) BTK C418S (Act): target residence time for BTK C481S, SPR
Sequence of BTK C481S (Q06187 whole entry C481S): as above
Outline: as §1

[7] = target: full-length wt-BTK enzyme (Homo sapiens (Human), UniProt Q06187); test: Biochemical kinase assay wt-BTK (IMAP)
Sequence of full-length wt-BTK enzyme (Q06187 whole entry): as the sequence (Q06187 whole entry C481S) above, with S481C counted along it
Outline: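 Compound and enzyme (final 1.2 nM) were pre-incubated for 1 h at RT, after which the reaction was started with 4 μM ATP plus 50 nM fluorescein-MBP substrate peptide. After 2 h in the dark, the IMAP progressive binding reagent stopped the reaction, and phosphorylation was read by fluorescence polarization.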

Sequence of wt-BTK (Q06187 whole entry): as the sequence (Q06187 whole entry C481S) above, with S481C counted along it

Row | Structure (SMILES) | Kd [1] [nM] | Tau (h) wt-BTK (Act) [1] [h] | IC50 [2] [nM] | IC50 [3] [nM] | IC50 [4] [nM] | IC50 [5] [nM] | Kd [6] [nM] | Tau (h) BTK C418S (Act) [6] [h] | IC50 [7] [nM]
1 | Nc1ncc2c3c1c(-c1ccc(C(=O)Nc4cc(C(F)(F)F)ccn4)cc1)nn3[C@@H]1CCC[C@H](C1)NC(=O)CCOC/C=C/2 [Example 25] | < 5 | 9.45 | < 100 | < 100 | < 5 | < 100 | < 5 | 12.17 | < 5
2 | C[C@@H]1CC(=O)N[C@@H]2CCC[C@H](C2)n2nc(-c3ccc(C(=O)Nc4cc(C(F)(F)F)ccn4)cc3)c3c(N)ncc(c32)/C=C/CCN1 [Example 45] | < 5 | 4.42 | < 100 | < 100 | < 5 | < 100 | < 5 | 3.17 | < 5
3 | N#Cc1ccnc(NC(=O)c2ccc(-c3nc4n5c(cnc(N)c35)/C=C/CCCCCC(=O)N[C@@H]3CCC[C@@H]4C3)cc2)c1 [Example 184] | – | 5.55 | < 100 | < 100 | < 5 | < 100 | < 5 | 2.43 | < 5
4 | N#Cc1ccnc(NC(=O)c2ccc(-c3nc4n5c(cnc(N)c35)/C=C/CCOCCC(=O)N[C@@H]3CC[C@@H]4C3)cc2)c1 [Example 201] | – | 10.14 | < 100 | < 100 | < 5 | < 100 | – | 1.91 | < 5
5 | N#Cc1ccnc(NC(=O)c2ccc(-c3nc4n5c(cnc(N)c35)/C=C/CCCCCC(=O)N[C@@H]3CC[C@@H]4C3)cc2)c1 [Example 204] | – | 5.64 | < 100 | < 100 | < 5 | < 100 | < 5 | – | < 5
